These results are taken from US9095594B2, “Pharmaceutical compositions comprising beta-lactam antibiotic, sulbactam and beta-lactamase inhibitor” (Wockhardt Ltd., priority 2011, dated 2015).

Values after ≈ are worked out from the molar mass of the structure shown. Where a name gives a salt, the structure may show the parent alone. Read-outs that look alike come from different tables or passages of the source.

For assay [1], the system named is A. baumanii 13301 (ESBL strain). The assay can be described thus: Agar dilution MIC (CLSI). Particulars: for MIC: Acinetobacter baumannii. The format is cell-based. On the technique in general: In agar dilution the substance is mixed into plates at graded concentrations.
Protocol: (§1) In a typical study, overnight grown bacterial cultures were diluted appropriately and inoculated on the agar media containing doubling dilutions of the antibiotic. Observation for growth or no growth was performed after 16-20 hours of incubation at 35±2° C. in ambient air.
Assay [2] relates to A. baumanii 13304 (ESBL strain). Nature of the assay: Agar dilution MIC (CLSI). The format is cell-based. Particulars: for MIC: Acinetobacter baumannii.
Protocol: as §1
Assay [3] has as its system A. baumanii 13305 (ESBL strain). Nature of the assay: Agar dilution MIC (CLSI). The format is cell-based. The settings on record: for MIC: Acinetobacter baumannii.
Protocol: as §1
The subject of assay [4] is A. baumanii S-3 (ESBL strain). The assay can be described thus: Agar dilution MIC (CLSI). It counts as cell-based. Particulars: for MIC: Acinetobacter baumannii.
Protocol: as §1
Assay [5] concerns A. baumanii S-4 (ESBL strain). The assay can be described thus: Agar dilution MIC (CLSI). The settings on record: for MIC: Acinetobacter baumannii. The format is cell-based.
Protocol: as §1
Assay [6] concerns A. baumanii S-8 (ESBL strain). The assay can be described thus: Agar dilution MIC (CLSI). Particulars: for MIC: Acinetobacter baumannii. It counts as cell-based.
Protocol: as §1
The test system of assay [7] is A. baumanii S-10 (ESBL strain). Nature of the assay: Agar dilution MIC (CLSI). It counts as cell-based. Particulars: for MIC: Acinetobacter baumannii.
Protocol: as §1
The subject of assay [8] is A. baumanii S-15 (ESBL strain). Nature of the assay: Agar dilution MIC (CLSI). The format is cell-based. The settings on record: for MIC: Acinetobacter baumannii.
Protocol: as §1
The test system of assay [9] is ESBL strains. The assay can be described thus: Agar dilution MIC (CLSI), text summary over the strains. The format is cell-based, A. baumanii.
Protocol: as §1
[10] abbreviates: alone, A. baumanii 13301, read-out: MIC.
The mark [11] stands for this setting: alone, A. baumanii 13304, read-out: MIC.
[12] abbreviates: alone, A. baumanii 13305, read-out: MIC.
Setting [13] is: alone, A. baumanii S-3, read-out: MIC.
Where [14] appears, read: alone, A. baumanii S-8, read-out: MIC.
[15] abbreviates: alone, A. baumanii S-10, read-out: MIC.

As to `CO/N=C(\C(=O)N[C@@H]1C(=O)N2C(C(=O)[O-])=C(C[N+]3(C)CCCC3)CS[C@H]12)c1csc(N)n1` [Cefepime, cefepime], the “MIC of beta-lactam with NXL-104 (4 mcg/ml) + Sulbactam (4 mcg/ml)” value in assay [1] (A. baumanii 13301), in assay [2] (A. baumanii 13304) and in [3] (A. baumanii 13305) was less than 0.06 µg/mL in each case. The “MIC of beta-lactam with NXL-104 (4 mcg/ml) + Sulbactam (8 mcg/ml)” value (“MIC … (4 mcg/ml) + Sulbactam (8 mcg/ml)” for short) in assay [1] (A. baumanii 13301) is less than 0.06 µg/mL; in assay [2] (A. baumanii 13304), less than 0.06 µg/mL; in [3] (A. baumanii 13305), less than 0.06 µg/mL; in assay [4] (A. baumanii S-3), 4 µg/mL; in assay [5] (A. baumanii S-4, NXL-104 4 mcg/ml + Sulbactam 8 mcg/ml) it was 4 µg/mL; in assay [6] (A. baumanii S-8) it was 8 µg/mL. In addition, the “MIC … (4 mcg/ml) + Sulbactam (8 mcg/ml)” value was 8 µg/mL in assay [7] (A. baumanii S-10) and 8 µg/mL in assay [8] (A. baumanii S-15, NXL-104 4 mcg/ml + Sulbactam 8 mcg/ml). The “MIC of beta-lactam with NXL-104 (6 mcg/ml) + Sulbactam (6 mcg/ml)” value (“MIC of beta-lactam … (6 mcg/ml)” below) in assay [1] (A. baumanii 13301) was less than 0.06 µg/mL; in assay [2] (A. baumanii 13304) it was less than 0.06 µg/mL; in assay [3] (A. baumanii 13305) it was less than 0.06 µg/mL; in [4] (A. baumanii S-3), 1 µg/mL; in assay [5] (A. baumanii S-4, NXL-104 6 mcg/ml + Sulbactam 6 mcg/ml), 1 µg/mL; in assay [6] (A. baumanii S-8), 0.5 µg/mL. Moreover, the “MIC of beta-lactam … (6 mcg/ml)” value in assay [7] (A. baumanii S-10) was less than 0.03 µg/mL; in [8] (A. baumanii S-15, NXL-104 6 mcg/ml + Sulbactam 6 mcg/ml) it was 0.12 µg/mL. The “MIC of beta-lactam with NXL-104 (8 mcg/ml) + Sulbactam (4 mcg/ml)” value (shortened to “MIC … (8 mcg/ml) + Sulbactam (4 mcg/ml)”) in assay [1] (A. baumanii 13301) was less than 0.06 µg/mL; in [2] (A. baumanii 13304), less than 0.06 µg/mL; in [3] (A. baumanii 13305) it was less than 0.06 µg/mL; in assay [4] (A. baumanii S-3), 0.5 µg/mL; in [5] (A. baumanii S-4, NXL-104 8 mcg/ml + Sulbactam 4 mcg/ml), 0.5 µg/mL; in assay [6] (A. baumanii S-8), 0.5 µg/mL. Also, the “MIC … (8 mcg/ml) + Sulbactam (4 mcg/ml)” value in assay [7] (A. baumanii S-10) is less than 0.03 µg/mL; in [8] (A. baumanii S-15, NXL-104 8 mcg/ml + Sulbactam 4 mcg/ml), 0.5 µg/mL. In addition, the “MIC of beta-lactam in presence of Sulbactam (4 to 8 mcg/ml)” value in [3] (A. baumanii 13305) amounted to 4 µg/mL.

For the molecule `CO/N=C(\C(=O)N[C@@H]1C(=O)N2C(C(=O)[O-])=C(C[n+]3cccc4c3CCC4)CS[C@H]12)c1csc(N)n1` [Cefpirome, cefpirome], the “MIC of beta-lactam with NXL-104 (4 mcg/ml) + Sulbactam (4 mcg/ml)” value in assay [1] (A. baumanii 13301) was less than 0.06 µg/mL; in [2] (A. baumanii 13304), less than 0.06 µg/mL; in assay [3] (A. baumanii 13305), less than 0.06 µg/mL; in assay [4] (A. baumanii S-3, NXL-104 4 mcg/ml + Sulbactam 4 mcg/ml), 16 µg/mL; in assay [6] (A. baumanii S-8, NXL-104 4 mcg/ml + Sulbactam 4 mcg/ml), 16 µg/mL; in assay [7] (A. baumanii S-10, NXL-104 4 mcg/ml + Sulbactam 4 mcg/ml), 16 µg/mL. The “MIC … (4 mcg/ml) + Sulbactam (8 mcg/ml)” value in assay [1] (A. baumanii 13301) is less than 0.06 µg/mL; in assay [2] (A. baumanii 13304), less than 0.06 µg/mL; in assay [3] (A. baumanii 13305), less than 0.06 µg/mL; in [4] (A. baumanii S-3) it was 4 µg/mL; in assay [6] (A. baumanii S-8) it was 8 µg/mL; in [7] (A. baumanii S-10) it was 8 µg/mL. Moreover, the “MIC of beta-lactam … (6 mcg/ml)” value was less than 0.06 µg/mL in [1] (A. baumanii 13301); less than 0.06 µg/mL in [2] (A. baumanii 13304); less than 0.06 µg/mL in assay [3] (A. baumanii 13305); 1 µg/mL in assay [4] (A. baumanii S-3); 0.5 µg/mL in assay [6] (A. baumanii S-8); less than 0.03 µg/mL in [7] (A. baumanii S-10). Besides, the “MIC … (8 mcg/ml) + Sulbactam (4 mcg/ml)” value in assay [1] (A. baumanii 13301) is less than 0.06 µg/mL; in [2] (A. baumanii 13304) it was less than 0.06 µg/mL; in assay [3] (A. baumanii 13305), less than 0.06 µg/mL; in assay [4] (A. baumanii S-3), 0.5 µg/mL; in assay [6] (A. baumanii S-8), 0.5 µg/mL; in [7] (A. baumanii S-10), less than 0.03 µg/mL. In addition, the “MIC of beta-lactam in presence of Sulbactam (4 to 8 mcg/ml)” value in assay [1] (A. baumanii 13301, Sulbactam 4 to 8 mcg/ml) was greater than 32 µg/mL; in assay [2] (A. baumanii 13304, Sulbactam 4 to 8 mcg/ml), 32 µg/mL; in [3] (A. baumanii 13305), 8 µg/mL; in [4] (A. baumanii S-3, Sulbactam 4 to 8 mcg/ml), greater than 32 µg/mL; in assay [6] (A. baumanii S-8, Sulbactam 4 to 8 mcg/ml), 32 µg/mL; in [7] (A. baumanii S-10, Sulbactam 4 to 8 mcg/ml), greater than 32 µg/mL. In addition, the MIC is greater than 32 µg/mL in assay [1] (A. baumanii 13301, NXL-104 4 to 8 mcg/ml, read-out: MIC of beta-lactam in presence of NXL-104 (4 to 8 mcg/ml)); greater than 32 µg/mL in [1] (setting [10]); 16 µg/mL in assay [2] (A. baumanii 13304, NXL-104 4 to 8 mcg/ml, read-out: MIC of beta-lactam in presence of NXL-104 (4 to 8 mcg/ml)); 32 µg/mL (≈ 62.2 µM) in [2] (setting [11]); 16 µg/mL in assay [3] (A. baumanii 13305, NXL-104 4 to 8 mcg/ml, read-out: MIC of beta-lactam in presence of NXL-104 (4 to 8 mcg/ml)); 16 µg/mL (≈ 31.1 µM) in assay [3] (setting [12]). For the same molecule, the MIC in assay [4] (A. baumanii S-3, NXL-104 4 to 8 mcg/ml, read-out: MIC of beta-lactam in presence of NXL-104 (4 to 8 mcg/ml)) is 32 µg/mL; in [4] (setting [13]), greater than 32 µg/mL; in [6] (A. baumanii S-8, NXL-104 4 to 8 mcg/ml, read-out: MIC of beta-lactam in presence of NXL-104 (4 to 8 mcg/ml)), 16 µg/mL; in assay [6] (setting [14]), 32 µg/mL (≈ 62.2 µM); in assay [7] (A. baumanii S-10, NXL-104 4 to 8 mcg/ml, read-out: MIC of beta-lactam in presence of NXL-104 (4 to 8 mcg/ml)), 16 µg/mL; in assay [7] (setting [15]) it was greater than 32 µg/mL. In addition, the “MIC in presence of sulbactam and NXL-104, lowest value ("as low as")” value in assay [9] is on record as “less than 0.03 mcg/ml”.

In the case of `NC(=O)[C@@H]1CC[C@@H]2CN1C(=O)N2OS(=O)(=O)O` [NXL-104, sodium salt of trans-7-oxo-6-(sulphooxy)-1,6-diazabicyclo-[3.2.1]-octane-2-carboxamide], the “MIC of NXL-104 in presence of Sulbactam (4 mcg/ml)” value in assay [1] (A. baumanii 13301, Sulbactam 4 mcg/ml) was 2 µg/mL; in assay [2] (A. baumanii 13304, Sulbactam 4 mcg/ml), 2 µg/mL; in [3] (A. baumanii 13305, Sulbactam 4 mcg/ml), 2 µg/mL; in assay [4] (A. baumanii S-3, Sulbactam 4 mcg/ml), 16 µg/mL; in assay [5] (A. baumanii S-4, Sulbactam 4 mcg/ml) it was 16 µg/mL; in [6] (A. baumanii S-8, Sulbactam 4 mcg/ml), 16 µg/mL. Moreover, the “MIC of NXL-104 in presence of Sulbactam (4 mcg/ml)” value in [7] (A. baumanii S-10, Sulbactam 4 mcg/ml) was 16 µg/mL; in assay [8] (A. baumanii S-15, Sulbactam 4 mcg/ml) it was 16 µg/mL. Further, the MIC in assay [1] (setting [10]) is greater than 64 µg/mL; in [2] (setting [11]), greater than 64 µg/mL; in [3] (setting [12]), greater than 64 µg/mL; in assay [4] (setting [13]), greater than 64 µg/mL; in assay [5] (alone, A. baumanii S-4, read-out: MIC), greater than 64 µg/mL; in assay [6] (setting [14]), greater than 64 µg/mL. Besides, the MIC in assay [7] (setting [15]) is greater than 64 µg/mL; in [8] (alone, A. baumanii S-15, read-out: MIC), greater than 64 µg/mL.

For the molecule `CC1(C)[C@H](C(=O)O)N2C(=O)C[C@H]2S1(=O)=O` [Sulbactam, sulbactam], the MIC in [1] was greater than 32 µg/mL; in assay [2], greater than 32 µg/mL; in assay [3], 16 µg/mL (≈ 68.6 µM); in assay [4], greater than 32 µg/mL; in [5], greater than 32 µg/mL; in assay [6] it was greater than 32 µg/mL. In addition, the MIC in assay [7] and in assay [8] was greater than 32 µg/mL in each case.
